Assay results as given in PMC5126668 (PeerJ, 2016).
Several values for one entry are separate records, joined by “and”; a condition that tells them apart may be missing. Equal entries are not always repeated. Where two headings read alike, the source gives them in different places.

Tests used:
BAK metabolism in HLMs = assay: Metabolic elimination of BAK in HLMs and its inhibition by GA (HPLC); format: in vitro ADME, human; details: for Remaining percentage of BAK (%) / remaining of BAK (%), single samples: BAK 10 µM; for Remaining percentage of BAK (%): HLMs 0.5 g/L, mean; for remaining of BAK (%), single samples: t=30 min
Description: The HLM mixtures were prepared on ice. […] At the end of the incubation (0 or 30 min), 200 µL of methanol-acetonitrile (1:1, V:V) solution containing tanshinone II A (internal standard) was added to terminate the reaction. The mixtures were then vortexed for 2 min followed by centrifugation at 14,500 rpm for 10 min. A 10 µL aliquot of the supernatant was then injected for HPLC analysis. […] RContr is the percentage of BAK remaining in the BAK group.

[1] = Toxicokinetics of BAK in rat plasma after a single oral dose; format: in vivo, Sprague–Dawley rats
Description: ABT, a broad-spectrum nonspecific CYP inhibitor, was selected as a positive control inhibitor of CYP enzymes. Aristolochic acid A (AA I) was selected as the nephrotoxicity positive control in the study.
The plasma samples were separated by centrifugation at 4000 rpm for 15 min. […] Subsequently, 10 µL of internal standard solution (tanshinone II A, 10 µg/mL) and 0.3 mL of acetonitrile were added to 0.1 mL of plasma or homogenates, and centrifuged at 13,300 rpm for 15 min after 2 min of vortexing. The supernatant was reconstituted in 100 µL of mobile phase after drying under 40 °C nitrogen, the mixture then was vortexed for 5 min and centrifuged at 13,300 rpm for 15 min. Finally, 20 µL of supernatant was injected for HPLC analysis.
The mobile phase consisted of methanol and water with 0.1% formic acid (89:11, v/v) and was supplied at a flow rate of 0.8 mL/min. The detection wavelength was set to 262 nm.

HK-2 cells = assay: HK-2 cell viability, MTT assay, with or without co-cultured HLMs; format: cell-based, human; details: BAK combined with GA
Description: HK-2 cells obtained from Peking Union Medical College were maintained in D/F12 medium containing 10% fetal bovine serum, 2 mM glutamine and 1 × 10^5 U/L penicillin and streptomycin at 37 °C in a 5% CO2 atmosphere. […] The samples containing HLMs were prepared in an ice bath, and three replicates were tested for each dose. In brief, HK-2 cells (100 µL) were seeded at 3 × 10^5cells/mL in 96-well plates. After 12 h, 200 µL of the test compound was added. For the BAK and GA with HLMs group, GA was pre-incubated with NADPH in HLMs for 30 min at 37 °C and then mixed with BAK; for the other groups, all tested compounds except NADPH were mixed, and NADPH was then added to start the metabolic reaction. After 4 h of culture, 100 µL of 0.5 g/L MTT was added, and the cells were cultured for 4 h. Subsequently, 150 µL of 4% isopropanol was added to cells for 15 min at 37 °C, and the absorbance at 570 nm was then read by a microplate reader (Multiskan MK3, Thermo, USA). The relative cell viability (%) was calculated as follows: Mean Absorbance of Sample/Mean Absorbance of Vehicle Control × 100%.

[2] = Sprague-Dawley, plasma, rat, single oral, BAK 200 mg/kg, with ABT or GA 100 mg/kg where named
[3] = rat, single oral, BAK 200 mg/kg, with ABT or GA 100 mg/kg where named

- 30min BAK metabolic percentage (%) (BAK metabolism in HLMs; BAK 10 µM alone, HLMs, 30 min): 36.51%
- Remaining percentage of BAK (%) (BAK metabolism in HLMs; GA 0 µM, 30 min): 63.49 ± 6.05% and 63.49%
- Remaining percentage of BAK (%) (BAK metabolism in HLMs; GA 12.5 µM, 30 min): 71.60 ± 6.40% and 71.60%
- remaining of BAK (%), single samples (BAK metabolism in HLMs; GA 12.5 µM): 64.61% and 73.02% and 77.17%
- Remaining percentage of BAK (%) (BAK metabolism in HLMs; GA 62.5 µM, 30 min): 80.10 ± 6.81 % and 80.10%
- remaining of BAK (%), single samples (BAK metabolism in HLMs; GA 62.5 µM): 85.51% and 72.46% and 82.34%
- remaining of BAK (%), single samples (BAK metabolism in HLMs; GA 93.75 µM): 73.93% and 93.16% and 104.23%
- Remaining percentage of BAK (%) (BAK metabolism in HLMs; GA 125.0 µM, 30 min): 97.24 ± 1.46 % and 97.24%
- remaining of BAK (%), single samples (BAK metabolism in HLMs; GA 125 µM): 98.81% and 95.94% and 96.96%
- remaining of BAK (%), single samples (BAK metabolism in HLMs; no GA, HLM 0.5 mg/ml): 56.87% and 64.87% and 68.72%
SMILES: C=C[C@@](C)(/C=C/c1ccc(O)cc1)CCC=C(C)C [BAK, Bakuchiol]
- BAK concentration in rat plasma, single rats 1-5 ([1]; 0.083 h after single oral dose): 19.440 ng/mL and 20.126 ng/mL and 124.551 ng/mL and 203.437 ng/mL and 45.002 ng/mL
- BAK concentration in rat plasma, single rats 1-5 ([1]; 0.500 h after single oral dose): 298.348 ng/mL and 315.739 ng/mL and 248.132 ng/mL and 249.198 ng/mL
- BAK concentration in rat plasma, single rats 1-5 ([1]; 1.000 h after single oral dose): 370.910 ng/mL and 622.012 ng/mL and 388.077 ng/mL and 359.422 ng/mL and 237.838 ng/mL
- BAK concentration in rat plasma, single rats 1-5 ([1]; 2.000 h after single oral dose): 741.835 ng/mL and 1388.336 ng/mL and 509.873 ng/mL and 610.667 ng/mL and 641.059 ng/mL
- BAK concentration in rat plasma, single rats 1-5 ([1]; 4.000 h after single oral dose): 1167.913 ng/mL and 614.550 ng/mL and 628.766 ng/mL and 924.718 ng/mL
- BAK concentration in rat plasma, single rats 1-5 ([1]; 8.000 h after single oral dose): 297.448 ng/mL and 580.240 ng/mL and 453.584 ng/mL and 180.567 ng/mL and 336.676 ng/mL
- BAK concentration in rat plasma, single rats 1-5 ([1]; 12.00 h after single oral dose): 101.667 ng/mL and 221.273 ng/mL and 140.087 ng/mL and 93.481 ng/mL and 214.562 ng/mL
- BAK concentration in rat plasma, single rats 1-5 ([1]; 24.00 h after single oral dose): 76.407 ng/mL and 58.961 ng/mL and 54.579 ng/mL and 73.723 ng/mL
- Cmax [1, 2]: 887 ± 281 ng/mL
- MRT [1, 2]: 6.79 ± 0.43 h
- Tmax [1, 2]: 3.6 ± 0.89 h
- AUC(0-t) ([1]; Sprague-Dawley, plasma, rat, single oral, BAK 200 mg/kg, with ABT or GA 100 mg/kg where named, read-out: AUC0−24 of BAK): 7260 ng·h/mL
- concentration at 0.083 h ([1]; Sprague-Dawley, rat, plasma, po, 200 mg/kg, 0.083 h after single oral dose): 82.5 ng/mL
- concentration at 0.5 h ([1]; Sprague-Dawley, rat, plasma, po, 200 mg/kg, 0.500 h after single oral dose, read-out: BAK concentration in rat plasma, mean): 273 ng/mL
- concentration at 0.5 h ([1]; Sprague-Dawley, rat, plasma, po, 200 mg/kg, 0.500 h after single oral dose, read-out: BAK concentration in rat plasma, single rats 1-5): 256 ng/mL
- concentration at 1 h ([1]; Sprague-Dawley, rat, plasma, po, 200 mg/kg, 1.000 h after single oral dose): 396 ng/mL
- concentration at 2 h ([1]; Sprague-Dawley, rat, plasma, po, 200 mg/kg, 2.000 h after single oral dose): 778 ng/mL
- concentration at 4 h ([1]; Sprague-Dawley, rat, plasma, po, 200 mg/kg, 4.000 h after single oral dose, read-out: BAK concentration in rat plasma, mean): 843 ng/mL
- concentration at 4 h ([1]; Sprague-Dawley, rat, plasma, po, 200 mg/kg, 4.000 h after single oral dose, read-out: BAK concentration in rat plasma, single rats 1-5): 881 ng/mL
- concentration at 8 h ([1]; Sprague-Dawley, rat, plasma, po, 200 mg/kg, 8.000 h after single oral dose): 370 ng/mL
- concentration at 12 h ([1]; Sprague-Dawley, rat, plasma, po, 200 mg/kg, 12.00 h after single oral dose): 154 ng/mL
- concentration at 24 h ([1]; Sprague-Dawley, rat, plasma, po, 200 mg/kg, 24.00 h after single oral dose, read-out: BAK concentration in rat plasma, mean): 68.1 ng/mL
- concentration at 24 h ([1]; Sprague-Dawley, rat, plasma, po, 200 mg/kg, 24.00 h after single oral dose, read-out: BAK concentration in rat plasma, single rats 1-5): 76.9 ng/mL
- concentration at 24 h ([1]; Sprague-Dawley, rat, plasma, po, 200 mg/kg, rat, 24 h after single oral dose, read-out: Exposure of BAK, Plasma, mean): 68.1 ng/g
- concentration at 24 h ([1]; Sprague-Dawley, rat, plasma, po, 200 mg/kg, rat, 24 h after single oral dose, read-out: Exposure of BAK, Plasma, single rats): 76.9 ng/g
- Exposure of BAK, Plasma, single rats ([1]; rat, 24 h after single oral dose): 0.0764 µg/g and 0.0590 µg/g and 0.0546 µg/g and 0.0737 µg/g
- CL of BAK [1, 3]: 470 ± 132 mL/min/kg
- V of BAK [1, 3]: 184.2 ± 58.6 L/kg
- t1∕2 of BAK [1, 3]: 4.71 ± 1.56 h
- decreases in viability of HK-2 cells (HK-2 cells): 25∼40%
